The record followed here is US7297704B2, “Cycloalkyfused indole, benzothiophene, benzofuran and idene derivatives” (Wyeth, priority 2005, dated 2007).

Usually melting point stands for the temperature, or range, at which the solid turns liquid. In general, IC50 refers to the midpoint of a concentration-inhibition curve. For orientation: Ki means the dissociation constant of the complex between target and ligand, obtained from inhibition or displacement.

Where a name gives a salt, the structure may show the parent alone.

One data set deals with T1, serotonin transporter (Rattus norvegicus, UniProt P31652).
T1 construct: frontal cortical membranes prepared from male S.D. rats; from tissue; host or cells: rat frontal cortex membranes (male Sprague-Dawley)
T1 sequence (P31652 whole entry): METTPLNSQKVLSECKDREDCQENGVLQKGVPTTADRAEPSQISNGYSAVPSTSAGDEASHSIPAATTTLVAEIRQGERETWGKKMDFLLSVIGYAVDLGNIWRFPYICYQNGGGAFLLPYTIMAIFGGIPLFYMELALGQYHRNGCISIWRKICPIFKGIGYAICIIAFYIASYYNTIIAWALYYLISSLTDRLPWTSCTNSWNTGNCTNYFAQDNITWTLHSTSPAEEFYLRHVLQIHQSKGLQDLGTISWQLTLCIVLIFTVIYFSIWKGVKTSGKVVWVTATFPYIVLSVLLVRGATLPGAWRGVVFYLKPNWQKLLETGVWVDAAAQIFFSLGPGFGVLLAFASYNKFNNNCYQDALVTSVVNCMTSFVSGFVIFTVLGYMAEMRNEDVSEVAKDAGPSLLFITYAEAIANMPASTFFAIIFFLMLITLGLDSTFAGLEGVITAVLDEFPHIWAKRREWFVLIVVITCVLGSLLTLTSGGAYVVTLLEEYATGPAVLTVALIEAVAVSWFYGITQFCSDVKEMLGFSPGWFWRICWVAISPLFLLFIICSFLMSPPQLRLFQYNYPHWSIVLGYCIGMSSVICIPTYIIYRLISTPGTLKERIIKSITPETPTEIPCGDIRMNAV
The experiment in a line: 3H-paroxetine binding to the serotonin transporter, rat frontal cortical membranes. The following applies: values printed in parentheses, 3H-paroxetine 0.1 nM, read-out: rb-5-HH-T, (IC50). As to the method: A protocol similar to that used by Cheetham et al. (Neuropharmacol. 32:737, 1993) was used to determine the affinity of compounds for the serotonin transporter. Briefly, frontal cortical membranes prepared from male S.D. rats were incubated with ^3H-paroxetine (0.1 nM) for 60 min at 25° C. All tubes also contained either vehicle, test compound (one to eight concentrations), or a saturating concentration of fluoxetine (10 μM) to define […]. All reactions are terminated by the addition of ice cold Tris buffer followed by rapid filtration using a Tom Tech filtration device to separate bound from free ^3H-paroxetine. Bound radioactivity was quantitated using a Wallac 1205 Beta Plate® counter. Nonlinear regression analysis was used to determine IC50 values which were converted to Ki values using the method of Cheng and Prusoff (Biochem. Pharmacol. 22: 3099, 1973); […].

The target in data set [1] is T2, Human 5-HT1A Receptor (Homo sapiens, UniProt P08908).
T2 construct: expressed in transfected cells; host or cells: CHO cells
T2 sequence (P08908 1-422): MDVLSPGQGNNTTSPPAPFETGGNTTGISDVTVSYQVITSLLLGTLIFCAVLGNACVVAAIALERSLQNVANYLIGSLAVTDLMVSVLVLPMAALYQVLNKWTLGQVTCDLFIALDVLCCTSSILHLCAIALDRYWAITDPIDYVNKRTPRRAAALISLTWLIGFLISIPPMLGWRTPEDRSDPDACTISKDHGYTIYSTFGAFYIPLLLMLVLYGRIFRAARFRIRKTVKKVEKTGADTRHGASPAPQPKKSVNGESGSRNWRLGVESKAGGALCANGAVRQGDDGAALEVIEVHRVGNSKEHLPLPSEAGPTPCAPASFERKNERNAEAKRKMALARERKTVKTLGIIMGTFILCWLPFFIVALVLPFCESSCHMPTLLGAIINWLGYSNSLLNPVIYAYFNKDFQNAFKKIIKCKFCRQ
The experiment in a line: cAMP RIA in human 5-HT1A receptor cell line. In kind it is cell-based. As to conditions: superscript b; reversal of agonist activity, CHO cells; read-out: c-AMP, (IC50)^b. As to the method:
Stably transfected CHO cells were grown in DMEM containing 10% heat inactivated FBS and non-essential amino acids. The cells were plated at a density of 10^6 cells per well in a 96 well plate and incubated for 2 days in a CO2 incubator. On the second day, the media was replaced with 0.1 ml Krebs and incubated 15 minutes at 37° C. The media was then replaced with Krebs buffer containing 500 uM IBMX and incubated 5 minutes at 37° C. Wells were treated with forskolin (1 uM final conc) followed immediately by test compound (0.1 and 1 uM for initial screen) and incubated for an additional 10 min at 37° C. Reaction was terminated by removal of the media and addition of 0.5 ml ice cold assay buffer (supplied in RIA kit). Plates are stored at −20° C. prior to assessment of cAMP formation by RIA. Compounds shown to have no agonist activities were further analyzed for ability to reverse agonist activity. In separate experiments, 6 concentrations of antagonist were preincubated for 20 min prior to the addition of agonist and forskolin. Cells were harvested as described. The cAMP kit is supplied by Amersham and the RIA is performed as per kit instructions. In the initial screen, percent inhibition of forskolin stimulated cAMP was measured. In the secondary screen, IC50 of reversal of agonist activity was measured. Calculations of IC50 were performed by GraphPad Prism. Serotonin, BMY 7378, Buspirone, and 8-OH-DPAT were used as reference compounds.

In data set [2] the target is T2, Human 5-HT1A Receptor. The experiment in a line: 8-OH-DPAT binding, human 5-HT1A receptor cell line. The following applies: stably transfected CHO cells, 8-OH-DPAT ligand 1.5 nM; read-out: h5-HT1A Affinity, Ki. The protocol:
Stably transfected CHO cells were grown in DMEM containing 10% heat inactivated FBS and non-essential amino acids. Cells were scraped off the plate, transferred to centrifuge tubes, and washed twice by centrifugation (2000 rpm for 10 min., 4° C.) in buffer (50 mM Tris, pH 7.5). The resulting pellets were aliquoted and placed at −80° C. On day of assay, the cells were thawed on ice, and resuspended in buffer. The binding assay was performed in a 96 well microtiter plate in a total volume of […]. Non-specific binding was determined in the presence of […] 5HT; final ligand concentration was 1.5 nM. Following a 30 min. incubation at room temperature, the reaction was terminated by the addition of ice cold buffer and rapid filtration through a GF/B filter presoaked for 30 min. in 0.5% PEI. Compounds were initially tested in a single point assay to determine percent inhibition at […]. Subsequently, Ki values were determined for compounds defined to be active. Percent inhibition Ki was determined by RFComp (Lundon Software), with Serotonin 8-OH-DPAT as the reference compounds.

`Cc1ccc2c3c(ccc2n1)OCC(CN(CC1CCc2c(c4cc(F)ccc4n2C)C1)C(C)C)O3` (as salt: hydrochloride) (hydrate or solvate) [Example 65, N-[(6-Fluoro-9-methyl-2,3,4,9-tetrahydro-1H-carbazol-3-yl)methyl]-N-([(2S)-8-methyl-2,3-dihydro[1,4]dioxino[2,3-f]quinolin-2-yl]methylpropan-2-aminemonohydrochloride monohydrate] displayed a melting point of 201 to 222 °C. With `Cc1ccc2c3c(ccc2n1)OC[C@H](CNC[C@@H]1CCc2[nH]c4ccc(F)cc4c2C1)O3` (as salt: hydrochloride) [Example 5, N-{[(3R)-6-fluoro-2,3,4,9-tetrahydro-1H-carbazol-3-yl]methyl}-N-{[(2S)-8-methyl-2,3-dihydro[1,4]dioxino[2,3-f]quinolin-2-yl]methyl}amine], the melting point was 229 to 236 °C. On the same count and under the same terms, with `Cc1ccc2c3c(ccc2n1)OC[C@H](CNC[C@H]1CCc2c(c4cc(F)ccc4n2C)C1)O3` (as salt: hydrochloride) [Example 7] the figure was 220 to 226 °C; with `Cc1ccc2c3c(ccc2n1)OC[C@H](CNC[C@@H]1CCc2c(c4cc(F)ccc4n2C)C1)O3` (as salt: hydrochloride) [Example 8, N-{[(3R)-6-fluoro-9-methyl-2,3,4,9-tetrahydro-1H-carbazol-3-yl]methyl}-N-{[(2S)-8-methyl-2,3-dihydro[1,4]dioxino[2,3-f]quinolin-2-yl]methyl}amine], 242 to 260 °C.

Compound `CCN(CC1CCc2[nH]c3ccc(F)cc3c2C1)C[C@H]1COc2ccc3nc(C)ccc3c2O1.Cl.Cl.O.O` (stereo partly drawn) (hydrate or solvate) [Example 50, N-[(6-Fluoro-2,3,4,9-tetrahydro-1H-carbazol-3-yl)methyl]-N-{[(2S)-8-methyl-2,3-dihydro[1,4]dioxino[2,3-f]quinolin-2-yl]methyl}ethanamine dihydrochloride dihydrate] displayed a melting point of 234 to 249 °C. Still for that read-out and setting: with `CCCN(CC1CCc2[nH]c3ccc(F)cc3c2C1)C[C@H]1COc2ccc3nc(C)ccc3c2O1.Cl.Cl.O.O` (stereo partly drawn) (hydrate or solvate) [Example 51, N-[(6-Fluoro-2,3,4,9-tetrahydro-1H-carbazol-3-yl)methyl]-N-{[(2S)-8-methyl-2,3-dihydro[1,4]dioxino[2,3-f]quinolin-2-yl]methyl}propan-1-amine dihydrochloride dihydrate] the figure was 187 to 201 °C.

The compound `Cc1ccc2c3c(ccc2n1)OC[C@H](CN(CC1CC1)CC1CCc2[nH]c4ccc(F)cc4c2C1)O3.Cl.Cl.O.O` (stereo partly drawn) (hydrate or solvate) [Example 52, (Cyclopropylmethyl)[(6-fluoro-2,3,4,9-tetrahydro-1H-carbazol-3-yl)methyl]{[(2S)-8-methyl-2,3-dihydro[1,4]dioxino[2,3-f]quinolin-2-yl]methyl}amine dihydrochloride dihydrate] yielded a melting point of 215 to 230 °C. `Cc1ccc2c3c(ccc2n1)OC[C@H](CN(CC1CCc2[nH]c4ccc(F)cc4c2C1)C1CCC1)O3.Cl.Cl.O.O` (stereo partly drawn) (hydrate or solvate) [Example 53, N-[(6-Fluoro-2,3,4,9-tetrahydro-1H-carbazol-3-yl)methyl]-N-{[(2S)-8-methyl-2,3-dihydro[1,4]dioxino[2,3-f]quinolin-2-yl]methyl}cyclobutanamine dihydrochloride dihydrate]: the melting point fell in the range of 220 to 235 °C.

In turn, `CCCN(C[C@@H]1CCc2[nH]c3ccc(F)cc3c2C1)C[C@H]1COc2ccc3nc(C)ccc3c2O1.Cl.Cl.O.O` (hydrate or solvate) [Example 54, N-{[(3R)-6-Fluoro-2,3,4,9-tetrahydro-1H-carbazol-3-yl]methyl}-N-{[(2S)-8-methyl-2,3-dihydro[1,4]dioxino[2,3-f]quinolin-2-yl]methyl}propan-1-amine dihydrochloride dihydrate] yielded a melting point of 225 to 240 °C.

`Cc1ccc2c3c(ccc2n1)OC[C@H](CN(CC1CC1)C[C@@H]1CCc2[nH]c4ccc(F)cc4c2C1)O3.Cl.Cl.O.O` (hydrate or solvate) [Example 55, (Cyclopropylmethyl){[(3R)-6-fluoro-2,3,4,9-tetrahydro-1H-carbazol-3-yl]methyl}{[(2S)-8-methyl-2,3-dihydro[1,4]dioxino[2,3-f]quinolin-2-yl]methyl}amine dihydrochloride dihydrate] yielded a melting point of 210 to 225 °C.

`Cc1ccc2c3c(ccc2n1)OC[C@H](CN(C[C@@H]1CCc2[nH]c4ccc(F)cc4c2C1)C1CCC1)O3.Cl.Cl.O.O` (hydrate or solvate) [Example 56, N-{[(3R)-6-Fluoro-2,3,4,9-tetrahydro-1H-carbazol-3-yl]methyl}-N-{[(2S)-8-methyl-2,3-dihydro[1,4]dioxino[2,3-f]quinolin-2-yl]methyl}cyclobutanamine dihydrochloride dihydrate] yielded a melting point of 215 to 230 °C. Same read-out and setting: next, `Cc1ccc2c3c(ccc2n1)OC[C@H](CN(C[C@@H]1CCc2[nH]c4ccc(F)cc4c2C1)C(C)C)O3.Cl.O` (hydrate or solvate) [Example 57, N-{[(3R)-6-Fluoro-2,3,4,9-tetrahydro-1H-carbazol-3-yl]methyl}-N-{[(2S)-8-methyl-2,3-dihydro[1,4]dioxino[2,3-f]quinolin-2-yl]methyl}propan-2-amine monohydrochloride monohydrate]: 230 to 243 °C. Take `Cc1ccc2c3c(ccc2n1)OC[C@H](CNC[C@H]1CCc2[nH]c4ccc(F)cc4c2C1)O3` [Example 3, S,S-(6-Fluoro-2,3,4,9-tetrahydro-1H-carbazol-3-ylmethyl)-(8-methyl-2,3-dihydro-[1,4]dioxino[2,3-f]quinolin-2-ylmethyl)-amine]: the IC50 on serotonin transporter worked out at 6.61 nM; at Human 5-HT1A Receptor [1], 79 nM. At Human 5-HT1A Receptor [2], the Ki amounted to 1.26 nM. With `Cc1ccc2c3c(ccc2n1)OC[C@H](CNC[C@@H]1CCc2[nH]c4ccc(F)cc4c2C1)O3` [Example 5, N-{[(3R)-6-fluoro-2,3,4,9-tetrahydro-1H-carbazol-3-yl]methyl}-N-{[(2S)-8-methyl-2,3-dihydro[1,4]dioxino[2,3-f]quinolin-2-yl]methyl}amine], the IC50 on serotonin transporter was 2.56 nM; at Human 5-HT1A Receptor [1], 144 nM. For the same compound, the Ki on Human 5-HT1A Receptor [2] stood at 2.03 nM.

Regarding `Cc1ccc2c3c(ccc2n1)OC[C@H](CNC[C@H]1CCc2c(c4cc(F)ccc4n2C)C1)O3` [Example 7], the IC50 worked out at 7.74 nM on serotonin transporter and 78.5 nM at Human 5-HT1A Receptor [1]. Moreover, at Human 5-HT1A Receptor [2], the Ki was found to be 0.34 nM. For `Cc1ccc2c3c(ccc2n1)OC[C@H](CNC[C@@H]1CCc2c(c4cc(F)ccc4n2C)C1)O3` [Example 8, N-{[(3R)-6-fluoro-9-methyl-2,3,4,9-tetrahydro-1H-carbazol-3-yl]methyl}-N-{[(2S)-8-methyl-2,3-dihydro[1,4]dioxino[2,3-f]quinolin-2-yl]methyl}amine] the same measures were 3.1 nM, 39.4 nM and 2.5 nM.
